Read-outs that look alike come from different tables or passages of the source.
Tested on: FLU A (PR/8/34)
Experiment: Flu A Neuraminidase Antiviral Assay
Type: cell-based

| SMILES | EC50 | EC50 (MDCK, 48 h) |
| --- | --- | --- |
| CCCC1CCC2N(C)C(=O)c3c(O)c(=O)ccn3N2C1c1ccccc1C (single isomer, unassigned) [Compound 92B, 7-hydroxy-5-methyl-2-propyl-1-(o-tolyl)-1,2,3,4,4a,5-hexahydrodipyrido[1,2-b:2′,1′-f][1,2,4]triazine-6,8-dione] | 3.3 nM |  |
| CCN1C(=O)c2c(O)c(=O)ccn2N2C(c3ccccc3C)C(CC(F)(F)F)CCC12 (single isomer, unassigned) [Compound 93A, 5-ethyl-7-hydroxy-1-(o-tolyl)-2-(2,2,2-trifluoroethyl)-1,2,3,4,4a,5-hexahydrodipyrido[1,2-b:2′,1′-f][1,2,4]triazine-6,8-dione] | 475 nM |  |
| CCN1C(=O)c2c(O)c(=O)ccn2N2C(c3ccccc3C)C(CC(F)(F)F)CCC12 (single isomer, unassigned) [Compound 93B, 5-ethyl-7-hydroxy-1-(o-tolyl)-2-(2,2,2-trifluoroethyl)-1,2,3,4,4a,5-hexahydrodipyrido[1,2-b:2′,1′-f][1,2,4]triazine-6,8-dione] | 2.9 nM |  |
| CCN1C(=O)c2c(O)c(=O)ccn2N2C(c3ccccc3)C(c3ccc(F)c(F)c3)CCC12 (single isomer, unassigned) [Compound 94A, 2-(3,4-difluorophenyl)-5-ethyl-7-hydroxy-1-phenyl-1,2,3,4,4a,5-hexahydrodipyrido[1,2-b:2′,1′-f][1,2,4]triazine-6,8-dione] | 397 nM |  |
| CCN1C(=O)c2c(O)c(=O)ccn2N2C(c3ccccc3)C(c3ccc(F)c(F)c3)CCC12 (single isomer, unassigned) [Compound 94B, 2-(3,4-difluorophenyl)-5-ethyl-7-hydroxy-1-phenyl-1,2,3,4,4a,5-hexahydrodipyrido[1,2-b:2′,1′-f][1,2,4]triazine-6,8-dione] | 8.6 nM |  |
| Cc1ccccc1C1C(CCC(F)(F)F)CCC2N(C)C(=O)c3c(O)c(=O)ccn3N12 (single isomer, unassigned) [Compound 95A, 7-hydroxy-5-methyl-1-(o-tolyl)-2-(3,3,3-trifluoropropyl)-1,2,3,4,4a,5-hexahydrodipyrido[1,2-b:2′,1′-f][1,2,4]triazine-6,8-dione] | 137 nM |  |
| Cc1ccccc1C1C(CCC(F)(F)F)CCC2N(C)C(=O)c3c(O)c(=O)ccn3N12 (single isomer, unassigned) [Compound 95B, 7-hydroxy-5-methyl-1-(o-tolyl)-2-(3,3,3-trifluoropropyl)-1,2,3,4,4a,5-hexahydrodipyrido[1,2-b:2′,1′-f][1,2,4]triazine-6,8-dione] | 7.5 nM |  |
| CCCC1CCC2N(CC)C(=O)c3c(O)c(=O)ccn3N2C1c1ccccc1F (single isomer, unassigned) [Compound 96A, 5-ethyl-1-(2-fluorophenyl)-7-hydroxy-2-propyl-1,2,3,4,4a,5-hexahydrodipyrido[1,2-b:2′,1′-f][1,2,4]triazine-6,8-dione] | > 810 nM |  |
| CCCC1CCC2N(CC)C(=O)c3c(O)c(=O)ccn3N2C1c1ccccc1F (single isomer, unassigned) [Compound 96B, 5-ethyl-1-(2-fluorophenyl)-7-hydroxy-2-propyl-1,2,3,4,4a,5-hexahydrodipyrido[1,2-b:2′,1′-f][1,2,4]triazine-6,8-dione] | 2.2 nM |  |
| CCN1C(=O)c2c(O)c(=O)ccn2N2C(c3ccccc3)C(CC3(C(F)(F)F)CC3)CCC12 (single isomer, unassigned) [Compound 97A, 5-ethyl-7-hydroxy-1-phenyl-2-((1-(trifluoromethyl)cyclopropyl)methyl)-1,2,3,4,4a,5-hexahydrodipyrido[1,2-b:2′,1′-f][1,2,4]triazine-6,8-dione] | > 810 nM |  |
| CCN1C(=O)c2c(O)c(=O)ccn2N2C(c3ccccc3)C(CC3(C(F)(F)F)CC3)CCC12 (single isomer, unassigned) [Compound 97B, 5-ethyl-7-hydroxy-1-phenyl-2-((1-(trifluoromethyl)cyclopropyl)methyl)-1,2,3,4,4a,5-hexahydrodipyrido[1,2-b:2′,1′-f][1,2,4]triazine-6,8-dione] | 24.2 nM |  |
| O=C1c2c(O)c(=O)ccn2N2C(c3ccccc3)C(CCC(F)(F)F)CCC2N1CC1CC1 (single isomer, unassigned) [Compound 100A, 5-(cyclopropylmethyl)-7-hydroxy-1-phenyl-2-(3,3,3-trifluoropropyl)-1,2,3,4,4a,5-hexahydrodipyrido[1,2-b:2′,1′-f][1,2,4]triazine-6,8-dione] | > 810 nM |  |
| O=C1c2c(O)c(=O)ccn2N2C(c3ccccc3)C(CCC(F)(F)F)CCC2N1CC1CC1 (single isomer, unassigned) [Compound 100B, 5-(cyclopropylmethyl)-7-hydroxy-1-phenyl-2-(3,3,3-trifluoropropyl)-1,2,3,4,4a,5-hexahydrodipyrido[1,2-b:2′,1′-f][1,2,4]triazine-6,8-dione] | 5.4 nM |  |
| CCN1C(=O)c2c(O)c(=O)ccn2N2C(c3ccccc3F)C(CCC(F)F)CCC12 (single isomer, unassigned) [Compound 101A, 2-(3,3-difluoropropyl)-5-ethyl-1-(2-fluorophenyl)-7-hydroxy-1,2,3,4,4a,5-hexahydrodipyrido[1,2-b:2′,1′-f][1,2,4]triazine-6,8-dione] | 148 nM |  |
| CCN1C(=O)c2c(O)c(=O)ccn2N2C(c3ccccc3F)C(CCC(F)F)CCC12 (single isomer, unassigned) [Compound 101B, 2-(3,3-difluoropropyl)-5-ethyl-1-(2-fluorophenyl)-7-hydroxy-1,2,3,4,4a,5-hexahydrodipyrido[1,2-b:2′,1′-f][1,2,4]triazine-6,8-dione] | 5.6 nM |  |
| CCN1C(=O)c2c(O)c(=O)ccn2N2C(c3ccccc3C)C(CCC(F)F)CCC12 (single isomer, unassigned) [Compound 102A, 2-(3,3-difluoropropyl)-5-ethyl-7-hydroxy-1-(o-tolyl)-1,2,3,4,4a,5-hexahydrodipyrido[1,2-b:2′,1′-f][1,2,4]triazine-6,8-dione] | 2.9 nM |  |
| CCN1C(=O)c2c(O)c(=O)ccn2N2C(c3ccccc3C)C(CCC(F)F)CCC12 (single isomer, unassigned) [Compound 102B, 2-(3,3-difluoropropyl)-5-ethyl-7-hydroxy-1-(o-tolyl)-1,2,3,4,4a,5-hexahydrodipyrido[1,2-b:2′,1′-f][1,2,4]triazine-6,8-dione] | 36.5 nM |  |
| Cc1ccccc1C1C(CCC(F)F)CCC2N(C)C(=O)c3c(O)c(=O)ccn3N12 (single isomer, unassigned) [Compound 103A, 2-(3,3-difluoropropyl)-7-hydroxy-5-methyl-1-(o-tolyl)-1,2,3,4,4a,5-hexahydrodipyrido[1,2-b:2′,1′-f][1,2,4]triazine-6,8-dione] | > 810 nM |  |
| Cc1ccccc1C1C(CCC(F)F)CCC2N(C)C(=O)c3c(O)c(=O)ccn3N12 (single isomer, unassigned) [Compound 103B, 2-(3,3-difluoropropyl)-7-hydroxy-5-methyl-1-(o-tolyl)-1,2,3,4,4a,5-hexahydrodipyrido[1,2-b:2′,1′-f][1,2,4]triazine-6,8-dione] | 5.3 nM |  |
| CCN1C(=O)c2c(O)c(=O)ccn2N2C(c3ccccc3)C(C3(C(F)(F)F)CC3)CCC12 (single isomer, unassigned) [Compound 104A, 5-ethyl-7-hydroxy-1-phenyl-2-(1-(trifluoromethyl)cyclopropyl)-1,2,3,4,4a,5-hexahydrodipyrido[1,2-b:2′,1′-f][1,2,4]triazine-6,8-dione] | 8 nM |  |
| CCN1C(=O)c2c(O)c(=O)ccn2N2C(c3ccccc3)C(C3(C(F)(F)F)CC3)CCC12 (single isomer, unassigned) [Compound 104B, 5-ethyl-7-hydroxy-1-phenyl-2-(1-(trifluoromethyl)cyclopropyl)-1,2,3,4,4a,5-hexahydrodipyrido[1,2-b:2′,1′-f][1,2,4]triazine-6,8-dione] | > 810 nM |  |
| CN1C(=O)c2c(O)c(=O)ccn2N2C(c3ccccc3)C(C3CC3(F)F)CCC12 (single isomer, unassigned) [Compound 105A, 2-(2,2-difluorocyclopropyl)-7-hydroxy-5-methyl-1-phenyl-1,2,3,4,4a,5-hexahydrodipyrido[1,2-b:2′,1′-f][1,2,4]triazine-6,8-dione] |  | 413 nM |
| CN1C(=O)c2c(O)c(=O)ccn2N2C(c3ccccc3)C(C3CC3(F)F)CCC12 (single isomer, unassigned) [Compound 105B, 2-(2,2-difluorocyclopropyl)-7-hydroxy-5-methyl-1-phenyl-1,2,3,4,4a,5-hexahydrodipyrido[1,2-b:2′,1′-f][1,2,4]triazine-6,8-dione] | > 810 nM |  |
| CCN1C(=O)c2c(O)c(=O)ccn2N2C(c3ccccc3Br)C(CC(F)(F)F)CCC12 (single isomer, unassigned) [Compound 106A, 1-(2-bromophenyl)-5-ethyl-7-hydroxy-2-(2,2,2-trifluoroethyl)-1,2,3,4,4a,5-hexahydrodipyrido[1,2-b:2′,1′-f][1,2,4]triazine-6,8-dione] | 6.4 nM |  |
| CCN1C(=O)c2c(O)c(=O)ccn2N2C(c3ccccc3Br)C(CC(F)(F)F)CCC12 (single isomer, unassigned) [Compound 106B, 1-(2-bromophenyl)-5-ethyl-7-hydroxy-2-(2,2,2-trifluoroethyl)-1,2,3,4,4a,5-hexahydrodipyrido[1,2-b:2′,1′-f][1,2,4]triazine-6,8-dione] | 87.8 nM |  |
| CN1C(=O)c2c(O)c(=O)ccn2N2C(c3ccccc3C3CC3)C(CC(F)(F)F)CCC12 (single isomer, unassigned) [Compound 107A, 1-(2-cyclopropylphenyl)-7-hydroxy-5-methyl-2-(2,2,2-trifluoroethyl)-1,2,3,4,4a,5-hexahydrodipyrido[1,2-b:2′,1′-f][1,2,4]triazine-6,8-dione] | 4800 nM |  |
| CN1C(=O)c2c(O)c(=O)ccn2N2C(c3ccccc3C3CC3)C(CC(F)(F)F)CCC12 (single isomer, unassigned) [Compound 107B, 1-(2-cyclopropylphenyl)-7-hydroxy-5-methyl-2-(2,2,2-trifluoroethyl)-1,2,3,4,4a,5-hexahydrodipyrido[1,2-b:2′,1′-f][1,2,4]triazine-6,8-dione] | 14.4 nM |  |
| CN1C(=O)c2c(O)c(=O)ccn2N2C(c3ccccc3)C(C3(C(F)(F)F)CC3)CCC12 (single isomer, unassigned) [Compound 108A, 7-hydroxy-5-methyl-1-phenyl-2-(1-(trifluoromethyl)cyclopropyl)-1,2,3,4,4a,5-hexahydrodipyrido[1,2-b:2′,1′-f][1,2,4]triazine-6,8-dione] | 5420 nM |  |

From patent publication US20240018145A1, “[…]-DEPENDENT EN[…] TREATING OR […]” (priority 2020, published 2024)
